Data as given in patent US7649001B2.
Where a chain is given by its changes, count along the chain named.

Columns and labels:
[1] = test system: Human prostate cancer cell strain LNCaP-FGC; experiment: cells; assay type: cell-based; settings: 72 h, read-out: Promotion rate (%) on PSA production at 100 nM
[2] = biological target: T1, wild type androgen receptor (AR) (Homo sapiens, UniProt P10275); experiment: AR-binding inhibition test (wild type); settings: read-out: Inhibition rate (%) at 100 nM Wild type
T1 sequence (P10275 1-920): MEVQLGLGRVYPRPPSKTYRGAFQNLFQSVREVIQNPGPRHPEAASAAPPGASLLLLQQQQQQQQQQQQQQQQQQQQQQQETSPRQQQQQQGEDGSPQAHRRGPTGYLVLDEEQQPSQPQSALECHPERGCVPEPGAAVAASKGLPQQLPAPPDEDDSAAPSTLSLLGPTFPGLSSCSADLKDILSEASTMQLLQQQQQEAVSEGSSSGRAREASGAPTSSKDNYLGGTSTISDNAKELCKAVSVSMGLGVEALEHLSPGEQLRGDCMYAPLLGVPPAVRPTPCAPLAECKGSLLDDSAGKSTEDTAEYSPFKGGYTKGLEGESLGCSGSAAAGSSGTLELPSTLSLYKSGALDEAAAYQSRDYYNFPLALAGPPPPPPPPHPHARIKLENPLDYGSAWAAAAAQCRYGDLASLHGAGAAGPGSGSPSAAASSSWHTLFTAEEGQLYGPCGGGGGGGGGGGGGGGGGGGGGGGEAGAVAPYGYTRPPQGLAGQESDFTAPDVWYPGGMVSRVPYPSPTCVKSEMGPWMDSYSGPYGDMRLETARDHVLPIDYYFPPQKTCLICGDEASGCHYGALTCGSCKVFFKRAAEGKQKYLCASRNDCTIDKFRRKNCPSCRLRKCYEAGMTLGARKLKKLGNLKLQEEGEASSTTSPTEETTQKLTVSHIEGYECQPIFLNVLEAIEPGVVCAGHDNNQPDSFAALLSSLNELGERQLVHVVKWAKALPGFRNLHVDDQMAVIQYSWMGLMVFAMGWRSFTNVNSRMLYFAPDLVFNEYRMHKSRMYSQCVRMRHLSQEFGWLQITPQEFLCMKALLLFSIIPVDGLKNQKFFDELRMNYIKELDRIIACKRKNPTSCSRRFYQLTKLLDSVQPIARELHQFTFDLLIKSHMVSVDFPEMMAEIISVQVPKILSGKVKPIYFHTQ

[3] = biological target: T2, LNCaP type mutant androgen receptor (AR) (Homo sapiens, UniProt P10275, T878A); experiment: AR-binding inhibition test (LNCaP type); settings: read-out: Inhibition rate (%) at 100 nM LNCaP type
T2 sequence (P10275 1-920 T878A): T1 sequence (P10275 1-920) with T878A

`C[C@H]1[C@H](O)CCN1c1ccc(C#N)c2sccc12` [Compound 115, 4-[(2S,3R)-3-hydroxy-2-methyl-1-pyrrolidinyl]-1-benzothiophene-7-carbonitrile] gave an activation at 0.1 µM [1] of 76%, a melting point of 145 to 146 °C and an inhibition at 0.1 µM [2] of 93%. For the same compound, the inhibition at 0.1 µM [3] was 97%.
With `N#Cc1ccc(N2CCC(CO)CC2)c2ccccc12` [Compound 30, 4-[4-(hydroxymethyl)-1-piperidinyl]-1-naphthonitrile] the activation at 0.1 µM [1] was 100%, the melting point was 135 to 136 °C and the inhibition at 0.1 µM [2] was 105%. For the same compound, the inhibition at 0.1 µM [3] was 113%.
`N#Cc1ccc(N2CCSCC2)c2ccccc12` [Compound 8, 4-(4-thiomorpholinyl)-1-naphthonitrile] gave an activation at 0.1 µM [1] of 71%, a melting point of 130 to 131 °C and an inhibition at 0.1 µM [2] of 92%. It also gave an inhibition at 0.1 µM [3] of 96%.
`N#Cc1ccc(N2CCC(CCO)CC2)c2ccccc12` [Compound 78, 4-[4-(2-hydroxyethyl)-1-piperidinyl]-1-naphthonitrile] showed an activation at 0.1 µM [1] of 89%, a melting point of 128 to 129 °C and an inhibition at 0.1 µM [2] of 92%. For the same compound, the inhibition at 0.1 µM [3] was 97%.
With `N#Cc1ccc(N2CCC(CCO)C2)c2ccsc12` (stereo not drawn) [Compound 101, 4-[3-(2-hydroxyethyl)-1-pyrrolidinyl]-1-benzothiophene-7-carbonitrile] the activation at 0.1 µM [1] was 86%, the melting point was 109 to 111 °C and the inhibition at 0.1 µM [2] was 93%. The inhibition at 0.1 µM [3] was 97%.
`C[C@H]1C[C@@H](O)CN1c1ccc(C#N)c2sccc12` [Compound 109, 4-[(2S,4R)-4-hydroxy-2-methyl-1-pyrrolidinyl]-1-benzothiophene-7-carbonitrile] showed an activation at 0.1 µM [1] of 86%, a melting point of 102 to 103 °C and an inhibition at 0.1 µM [2] of 98%. For the same compound, the inhibition at 0.1 µM [3] was 99%.
